Source: patent US3932650A, “Trans-octahydropyridoindolobenzazepines as central nervous system depressants” (E. I. Du Pont de Nemours & Company, priority 1973, dated 1976)
Where two headings read alike, the source gives them in different places.

Key:
[1] = system: catalepsy; assay: Catalepsy, mouse; type: in vivo; conditions: po, read-out: Catalepsy MED
Text: (§1) The ability of an animal to remain in an abnormal position is used as another indication of central nervous system depressant activity. A test animal is removed from its observation cage and positioned so that its hind legs are on the table top and its front legs rest on the side of the observation cage. If an animal maintains this position for at least 10 seconds, it is considered to be showing cataleptic behavior.

[2] = system: eyelid closure (ptosis); assay: Ptosis, mouse; type: in vivo; conditions: po, read-out: Ptosis MED
[3] = system: locomotor activity; assay: Decreased Locomotor Activity (L.M.A.), mouse; type: in vivo; conditions: po, read-out: L.M.A. MED
Description: (§2) Decreased Locomotor Activity (L.M.A.)
(§3) This reaction sign is measured subjectively by observing how an animal behaves when it is removed from an observation cage and placed on a table top. […] The degree of stimulation by the observer needed to produce active locomotion is rated on an arbitrary scale. This ranges from a score of -1 where only a slight touch of the animal's body is required to a -4 where the animal is unresponsive or minimally responsive to the application of a pain stimulus (pressure at the base of the tail). The minimal effective dose (MED) is the lowest oral dose producting an obvious decrease of locomotor activity (with a score of at least -1). Groups of 3 mice are given decreasing oral doses at 0.5 log intervals (300, 100, 30. . .etc.) until no behavioral effects are evident. Decrease of locomotor activity is indicative of general central nervous system depressant activity.

[4] = system: phenyl-p-benzoquinone-induced writhing; assay: Phenylquinone Writhing (P.Q.W.); type: in vivo, mouse; conditions: po
[5] = system: catalepsy; assay: Catalepsy, rat; type: in vivo; conditions: po, read-out: Catalepsy MED
Text: as §1

[6] = system: locomotor activity; assay: Decreased Locomotor Activity (L.M.A.), rat; type: in vivo; conditions: po, read-out: L.M.A. MED
Description: as §2, §3

[7] = system: eyelid closure (ptosis); assay: Ptosis, rat; type: in vivo; conditions: po, read-out: Ptosis MED
Text: Degree of eyelid closure is used as a measure of central nervous system depression. An animal is removed from its observation cage and allowed to remain outside the cage for 30 seconds. At the end of this time a rating of degree of eyelid closure is made on an arbitrary scale.

[8] = system: taming; assay: Rhesus Monkey Taming Effects; type: in vivo; conditions: Macaca mulatta, po, read-out: Taming MED
Description: Rhesus Monkey Taming Effects (Taming):
Results given in: mg/kg po/monkey
Compounds are administered orally to groups of 6 rhesus monkeys. The behavior of the animals is then evaluated by observational means. Taming effects are determined by the ability of the observer to approach and touch the monkey. Compounds with major tranquilizer activity in man can produce a state of passive tameness in the rhesus monkey wherein it can be touched without provoking any of the threatening or aggressive behavior seen in the normal animal. The MED is the minimal oral dose at which some taming effect can be observed.

[9] = system: conditioned avoidance response; assay: Conditioned Avoidance Response (C.A.R.), rat; type: in vivo; conditions: po, read-out: C.A.R. ED50
Description: (§4) Mouse and Rat Conditioned Avoidance Response (C.A.R.):
(§5) Mice and rats are trained to jump out of a pit onto a ledge to avoid shock when presented with a light and sound conditioned stimulus. The animals are tested 1, 2, and 4 hours after administration of the test compound. Three to four dose levels and groups of 4-8 animals/dose are used. The ED50 is the dose producing a block of the C.A.R. in 50% of the animals. Blocking of the C.A.R. at non-toxic doses appears to correlate with major tranquilizer activity in man.

[10] = system: conditioned avoidance response; assay: Dog Conditioned Avoidance Response (C.A.R.); type: in vivo; conditions: Canis lupus familiaris, po, read-out: C.A.R. ED50
Description: Dog Conditioned Avoidance Response (C.A.R.):
Results given in: mg/kg po/dog
Dogs are trained to raise a forelimb when presented with a conditioned stimulus (light) in order to avoid an electric shock. Blocks of 10 trials are given to groups of 4 dogs during a pretreatment period and at 1, 2, and 4 hours after oral administration of the test compound. The ED50 values are calculated as the dose causing 50% of the animals to show 5 or more incorrect responses. Blocking of the C.A.R. at non-toxic doses appears to correlate with major tranquilizer activity in man.

[11] = system: conditioned avoidance response; assay: Conditioned Avoidance Response (C.A.R.), mouse; type: in vivo; conditions: po, read-out: C.A.R. ED50
Description: as §4, §5

[12] = system: TBZ-induced ptosis; assay: Tetrabenazine Antagonism (T.B.Z.A.), rat; type: in vivo; conditions: 1 h, po, read-out: T.B.Z.A. ED50
Description: (§6) Tetrabenazine Antagonism (T.B.Z.A.)
(§7) The tetrabenazine (TBZ) antagonism test is used to test for potential antidepressant-like activity in rodents. One hour after oral administration of a test compound, a 40 mg/kg dose of TBZ is given subcutaneously. Thirty minutes after TBZ administration, the mice are placed in the center of a circle; the diameter of the circle is twice the body length of the mouse or rat. After 30 seconds, a reading is made of the degree of ptosis and whether the animal has moved out of the circle. Animals that have received only TBZ will show marked ptosis and immobility. Tricyclic antidepressants of the imipramine type will antagonize the ptosis but not the immobility. Antidepressants of the amphetamine or monoamine oxidase inhibitory type will antagonize both the ptosis and immobility induced by TBZ. The ED50 is the dose producing antagonism of TBZ-induced ptosis, but not of TBZ-induced immobility, in 50% of the animals.

[13] = system: fear / feeding in approach-avoidance conflict; assay: Rat Conflict (Approach-Avoidance) Test; type: in vivo; conditions: po, read-out: Conflict MED
Description: Rat Conflict (Approach-Avoidance) Test (Conflict)
Results given in: mg/kg po/rat
Food deprived rats are trained to pass from one compartment to an adjacent one to obtain food. The training consists of 3 exposures to the test situation on day one of the experiment. The rats are given limited (1-2 hr) free access to food in their home cages on day one and are then food deprived for at least 18 hours. On day two of the experiment, the rats are given a control exposure to the test situation followed by a second exposure after one-half to 1 hour in which they are shocked after crossing and eating. Groups of 6-8 rats are then dosed orally with solvent or test compound and then re-exposed to the test situation after 1 or 2 hours.
Compounds showing minor tranquilizer (anxiolytic) activity in man such as diazepam and meprobamate produce an apparent decreased fear in the test animals so that they cross to obtain food despite having received a shock earlier. This effect is dose-related (and the MED is the minimum dose at which this effect is obtained); rats dosed with solvent only consistently show a high level of fear as evidenced by decreased mobility and absence of feeding when placed in the test situation after receiving a shock.

[14] = system: TBZ-induced ptosis; assay: Tetrabenazine Antagonism (T.B.Z.A.), mouse; type: in vivo; conditions: 1 h, po, read-out: T.B.Z.A. ED50
Description: as §6, §7

[15] = 0.5 h, mouse, phenyl-p-benzoquinone 2.5 mg/kg i.p. 30 minutes after compound, read-out: P.Q.W. ED50
[16] = rat, block of C.A.R. in 50% of animals, 1, 2, and 4 hours
[17] = dog, 5 or more incorrect responses in 50% of animals, 1, 2, and 4 hours
[18] = mouse, block of C.A.R. in 50% of animals, 1, 2, and 4 hours
[19] = rat, TBZ 40 mg/kg s.c. one hour after compound
[20] = mouse, TBZ 40 mg/kg s.c. one hour after compound

CC(C)CN1CCc2c(c3cccc4c3n2-c2ccccc2CC4)C1 [isobutyl hexahydro]
minimal effective dose ([1]; mouse): ~60 mg/kg | minimal effective dose ([2]; mouse, passive ptosis): ~60 mg/kg | minimal effective dose ([3]; mouse, minimal effective dose): ~60 mg/kg

COc1ccc2c3c1O[C@H]1[C@@H](O)C=C[C@H]4[C@@H](C2)N(C)CC[C@@]341 [Codeine phosphate]
ED50 ([4]; Mus musculus, read-out: Analgesic ED50): 19 mg/kg

c1ccc2c(c1)CCc1cccc3c1N2[C@H]1CCN(C[C@H]2[C@@H]4CCCC[C@@H]42)C[C@H]31 (relative stereo) [Example 7, trans-1,2,3,4,4a,8,9,14a-Octahydro-3-(exo-7-norcarylmethyl)pyrido[4',3':2,3] indolo[1,7-ab][1]benzazepine]
minimal effective dose ([1]; mouse): 3 mg/kg | minimal effective dose ([2]; mouse, passive ptosis): 3 mg/kg | minimal effective dose ([5]; rat): 300 mg/kg | minimal effective dose ([3]; mouse, minimal effective dose): 3 mg/kg | ED50 [4, 15]: 14 mg/kg | minimal effective dose ([6]; minimal effective dose): 3 mg/kg | minimal effective dose ([7]; rat, passive ptosis): 3 mg/kg

CN1CCc2c(c3cccc4c3n2-c2ccccc2CC4)C1 [methyl hexahydro, 1,2,3,4,8,9-hexahydro-3-methylpyrido[4',3':2,3]indolo[1,7-ab][1]benzazepine]
minimal effective dose ([1]; mouse): 300 mg/kg | minimal effective dose ([8]; rhesus monkey): 10 mg/kg | ED50 [9, 16]: 30 mg/kg | ED50 [10, 17]: > 30 mg/kg | ED50 [11, 18]: 20 mg/kg | minimal effective dose ([2]; mouse, passive ptosis): 30 mg/kg | minimal effective dose ([5]; rat): 100 mg/kg | ED50 [12, 19]: > 100 mg/kg | minimal effective dose ([13]; rat, after 1 or 2 hours): 20 mg/kg | minimal effective dose ([3]; mouse, minimal effective dose): 10 mg/kg | ED50 [14, 20]: > 100 mg/kg | minimal effective dose ([6]; minimal effective dose): 30 mg/kg | minimal effective dose ([7]; rat, passive ptosis): 30 mg/kg

c1ccc2c(c1)CCc1cccc3c4c(n-2c13)CCN(CC1CC1)C4 [(cyclopropylmethyl) hexahydro, 3-(cyclopropylmethyl)-1,2,3,4,8,9-hexahydropyrido[4',3':2,3]indolo[1,7-ab][1]benzazepine]
minimal effective dose ([1]; mouse): 30 mg/kg | minimal effective dose ([8]; rhesus monkey): 3 mg/kg | ED50 [9, 16]: 40 mg/kg | ED50 [10, 17]: > 30 mg/kg | ED50 [11, 18]: 20 mg/kg | minimal effective dose ([2]; mouse, passive ptosis): 30 mg/kg | minimal effective dose ([5]; rat): 30 mg/kg | ED50 [12, 19]: > 100 mg/kg | minimal effective dose ([13]; rat, after 1 or 2 hours): 10 mg/kg | minimal effective dose ([3]; mouse, minimal effective dose): 10 mg/kg | ED50 [14, 20]: > 100 mg/kg | minimal effective dose ([6]; minimal effective dose): 10 mg/kg | minimal effective dose ([7]; rat, passive ptosis): 30 mg/kg

CCN1CCc2c(c3cccc4c3n2-c2ccccc2CC4)C1 [ethyl hexahydro]
minimal effective dose ([1]; mouse): > 300 mg/kg | minimal effective dose ([8]; rhesus monkey): > 20 mg/kg | ED50 [9, 16]: > 40 mg/kg | ED50 [10, 17]: > 30 mg/kg | ED50 [11, 18]: > 40 mg/kg | minimal effective dose ([2]; mouse, passive ptosis): 30 mg/kg | minimal effective dose ([5]; rat): > 300 mg/kg | ED50 [12, 19]: > 100 mg/kg | minimal effective dose ([13]; rat, after 1 or 2 hours): 20 mg/kg | minimal effective dose ([3]; mouse, minimal effective dose): 30 mg/kg | ED50 [14, 20]: > 100 mg/kg | minimal effective dose ([6]; minimal effective dose): 30 mg/kg | minimal effective dose ([7]; rat, passive ptosis): > 300 mg/kg

CC(=O)Oc1ccccc1C(=O)O [aspirin]
ED50 [4, 15]: 94 mg/kg

c1ccc(CN2CCc3c(c4cccc5c4n3-c3ccccc3CC5)C2)cc1 [benzyl hexahydro, 3-benzyl-1,2,3,4,8,9-hexahydropyrido[4',3':2,3]indolo[1,7-ab][1] benzazepine]
minimal effective dose ([1]; mouse): > 300 mg/kg | minimal effective dose ([2]; mouse, passive ptosis): > 300 mg/kg | minimal effective dose ([5]; rat): > 300 mg/kg | minimal effective dose ([3]; mouse, minimal effective dose): ~200 mg/kg | minimal effective dose ([6]; minimal effective dose): > 300 mg/kg | minimal effective dose ([7]; rat, passive ptosis): > 300 mg/kg

c1ccc(CN2CC[C@@H]3[C@@H](C2)c2cccc4c2N3c2ccccc2CC4)cc1 (relative stereo) [Example 6, trans-3-Benzyl-1,2,3,4,4a,8,9,14a-octahydropyrido[4',3':2,3]indolo[1,7-ab][1]benzazepine]
minimal effective dose ([1]; mouse): 49 mg/kg | minimal effective dose ([2]; mouse, passive ptosis): 13 mg/kg | minimal effective dose ([5]; rat): > 300 mg/kg | minimal effective dose ([3]; mouse, minimal effective dose): 2 mg/kg | ED50 [4, 15]: 28 mg/kg | minimal effective dose ([6]; minimal effective dose): 65 mg/kg | minimal effective dose ([7]; rat, passive ptosis): 150 mg/kg

Cl.c1ccc2c(c1)CCc1cccc3c1N2[C@@H]1CCN(CC2CCCC2)C[C@@H]31 (relative stereo) [cyclopentylmethyl, trans-3-cyclopentylmethyl1,2,3,4,4a,8,9,14a-octahydropyrido[4',3':2,3]indolo[1,7-ab][1]benzazepine hydrochloride]
ED50 [4, 15]: 2 mg/kg

c1ccc(CCN2CC[C@H]3[C@H](C2)c2cccc4c2N3c2ccccc2CC4)cc1 (relative stereo) [phenethyl, trans-1,2,3,4,4a,8,9,14a-octahydro-3-phenethylpyrido[4',3+:2,3]indolo[1,7-ab][1]benzazepine]
ED50 [4, 15]: 4.7 mg/kg

CN1CC[C@H]2[C@@H](C1)c1cccc3c1N2c1ccccc1CC3 (relative stereo) [methyl octahydro cis]
minimal effective dose ([1]; Mus musculus): > 300 mg/kg | minimal effective dose [8]: > 20 mg/kg | ED50 ([9]; Rattus norvegicus, 4 h): > 40 mg/kg | ED50 ([10]; 4 h): > 30 mg/kg | ED50 ([11]; Mus musculus, 4 h): > 40 mg/kg | minimal effective dose ([2]; Mus musculus): > 300 mg/kg | minimal effective dose ([5]; Rattus norvegicus): > 300 mg/kg | ED50 ([12]; Rattus norvegicus): 7.4 mg/kg | minimal effective dose ([13]; Rattus norvegicus): > 40 mg/kg | minimal effective dose ([3]; Mus musculus): 30 mg/kg | ED50 ([14]; Mus musculus): 15 mg/kg | minimal effective dose [6]: 30 mg/kg | minimal effective dose ([7]; Rattus norvegicus): > 300 mg/kg

COc1ccc2c3c1O[C@H]1[C@@H](O)C=C[C@H]4[C@@H](C2)N(C)CC[C@@]341 [codeine]
ED50 ([4]; Mus musculus, 0.5 h, read-out: P.Q.W. ED50): 19 mg/kg
